The record followed here is patent publication US8309593B2, “2-acylaminopropoanol-type glucosylceramide synthase inhibitors” (Genzyme Corporation, priority 2008, dated 2012).

The structures appear in SMILES notation.

One data set deals with GM3. The data set can be described thus: GM3 Elisa assay. Format: cell-based. Particulars: Table 3 (title: IC 50 Values); read-out: IC50_uM_Mean. As for the experimental part:
B16-FO cells from ATCC (American Tissue Culture Collection) were grown in DMEM media (ATCC) with 10% Fetal Bovine Serum (Hyclone) and Pen/Step/Glutamine (Biowhittaker). 4000 cells per well were plated on collagen coated plates (BD) and allowed to attach for 6 hours in an incubator (37 degrees, 5% CO2). After 6 hours the compounds and controls were added to the wells, the plates mixed and returned to the incubator for 2 days. Day of assay the cells were fixed for 20 minutes with 1% formaldehyde and then washed with Tris Buffered Saline (TBS) 3 times, 150 μl of TBS was left in the wells and 50 μl of goat serum (Invitrogen) was added, the plates mixed and incubated for 1 hour at room temperature. The plates were flicked and the cells incubated with the monoclonal Antibody to GM3 (NeuAc) (Cosmo) for 45 minutes as room temperature. The plates were then washed 3 times with TBS, leaving 150 μl of TBS in the wells and Peroxidase AffinPure F (ab′) 2 frag Gt Anti-mouse IgM, μ Chain Specific (Jackson Immuno Research) was added in 50 μl, the plates mixed and incubated for 45 minutes at room temperature. The plates were washed 3 times with TBS, flicked and blotted and 100 μl of Quantablu (Pierce) was added to the wells and incubated for 1 hour then read on a Fluorometer at Ex 325 and Em 420. The data was then analyzed using standard programs.

Another data set deals with jck mice. The experiment in a line: PKD mouse model (jck mice, compound in feed). It counts as in vivo. Conditions: for BUN / Body weight / Cystic volume / K/BW ratio: 0.225% Compound A in feed. On the procedure: jck mice was administered Compound A ad libitum in feed (0.225% Compound A mixed with a standard diet chow in powdered format) from 26-64 days of age. Control jck mice were fed a control powdered diet from 26-64 days of age. At 63 days of age, animals were transferred to metabolic cages for 24 hour urine collection. At 64 days of age, animals were sacrificed by CO2 administration. Blood was collected by heart puncture for serum isolation. Kidneys were isolated and bisected; half of each kidney was fixed in 4% paraformaldehyde in PBS overnight for paraffin embedding and H&E staining.
Total body weight and kidney weight were determined at sacrifice.
Cyst volume was measured by quantitating the percentage of cystic area in histological sections of kidneys from the treated and control animals, multiplied by the kidney/body weight ratio.
Blood urea nitrogen (BUN) levels were determined in serum samples derived from animals at sacrifice.

The mark [1] stands for this setting: female jck mice, 26-64 days of age.
Where [2] appears, read: male jck mice, 26-64 days of age.

As to `COc1ccc(OCC[C@H](O)N[C@H](CN2C(C)CCCC2C)C(O)c2ccc3c(c2)OCCO3)cc1` (stereo partly drawn) [Compound 598], in the data set on GM3, the IC50 was 3000 to 10000 nM.

Take `COc1ccc(C(=O)CCCCCC(=O)N[C@H](CN2C(C)CCC[C@H]2C)[C@@H](O)c2ccc3c(c2)OCCO3)cc1` (stereo partly drawn) [Compound 602]: the IC50 with GM3 was in the range of 3000 to 10000 nM.

With `O=C(N[C@H](CN1CCCC1)[C@@H](O)c1ccc2c(c1)OCCO2)C1(C(F)(F)F)CCC1` [Compound 614], the IC50 with GM3 lay within 3000 to 10000 nM.

`O=C(CC(F)(F)F)N[C@H](CN1CCCC1)[C@@H](O)c1ccc2c(c1)OCCO2` [Compound 624]: in the data set on GM3, the IC50 lay within 3000 to 10000 nM.

As to `O=C(CCCCCC(=O)c1ccc(F)cc1)N[C@H](CN1CCCC1)[C@@H](O)c1ccc2c(c1)OCCO2` [Compound 628], in the data set with GM3, the IC50 was ≤ 100 nM.

As to `CC(O)(CCCCCC(=O)N[C@H](CN1CCCC1)[C@@H](O)c1ccc2c(c1)OCCO2)C1CCCC1` (stereo partly drawn) [Compound 633], in the data set with GM3, the IC50 fell in the range of 100 to 1000 nM.

Regarding `O=C(CCCCCCOCC(F)(F)F)N[C@H](CN1CCCC1)[C@@H](O)c1ccc2c(c1)OCCO2` [Compound 634], the IC50 in the data set with GM3 fell in the range of 100 to 1000 nM.

As to `O=C(N[C@H](CN1CCCC1)[C@H](O)c1ccc2c(c1)OCCO2)[C@H]1CC[C@@H](C(=O)c2ccc(F)cc2)C1` [Compound 635], the IC50 in the data set with GM3 lay in the range of 3000 to 10000 nM.

On to `CC(O)(CCCCCC(=O)N[C@H](CN1CCCC1)[C@@H](O)c1ccc2c(c1)OCCO2)C1CCCCC1` (stereo partly drawn) [Compound 641], for which, in the data set with GM3, the IC50 is ≤ 100 nM.

Take `Cc1noc(CCCCC(=O)N[C@@H](CN2CCCC2)C(O)c2ccc3c(c2)OCCO3)n1` (stereo partly drawn) [Compound 652]: in the data set with GM3, the IC50 lay within 3000 to 10000 nM.

As for `O=C(CCCCCC(=O)c1ccc(F)cc1)NC(CN1CC[C@H](O)C1)[C@H](O)c1ccc2c(c1)OCCO2` (stereo partly drawn) [Compound 653], the IC50 with GM3 was ≤ 100 nM.

For `O=C(CCCOc1ccc(F)cc1)N[C@@H](CN1CC[C@H](O)C1)[C@H](O)c1ccc2c(c1)OCCO2` [Compound 656], the IC50 with GM3 is ≤ 100 nM.

As to `CCCCOc1ccc([C@@H](O)[C@@H](CN2CCC(F)C2)NC(=O)CCCCC(=O)c2ccc(F)cc2)cc1` (stereo partly drawn) [Compound 658], the IC50 in the data set on GM3 fell in the range of 100 to 1000 nM.

As to `CC(=O)CCCCCC(=O)N[C@H](CN1CCCC1)[C@@H](O)c1ccc(OC(F)(F)F)cc1` [Compound 665], the IC50 with GM3 was 3000 to 10000 nM.

For the molecule `COc1ccc(C(=O)CCCCCC(=O)N[C@H](CN2CCCC2)[C@@H](O)c2ccc(OC(F)(F)F)cc2)cc1` [Compound 666], the IC50 in the data set with GM3 was 100 to 1000 nM.

For the molecule `CCCCCCCC(=O)N[C@H](CN1CCCC1)[C@@H](O)c1ccc(OC(F)(F)F)cc1` [Compound 667], in the data set with GM3, the IC50 is 100 to 1000 nM.

Regarding `COc1cc([C@H](O)[C@@H](CN2CCCC2)NC(=O)CCCCCC(C)=O)cc(OC)c1OC` [Compound 671], in the data set with GM3, the IC50 lay in the range of 3000 to 10000 nM.

In the case of `COc1ccc(OCCC(=O)N[C@@H](CN2CCCC2)[C@@H](O)c2ccc3c(c2)OCCO3)cc1` [Compound 674], the IC50 in the data set with GM3 lay within 3000 to 10000 nM.

In the case of `COc1ccc(OCCC(=O)N[C@@H](CN2CCCC2)[C@@H](O)c2ccc3c(c2)OCCO3)cc1` [Compound 675], the IC50 with GM3 is 3000 to 10000 nM.

Consider `COc1ccc(OCCC(=O)N[C@H](CN2CCCC2)[C@@H](O)c2ccc3c(c2)OCCO3)cc1` [Compound 676], for which, in the data set on GM3, the IC50 lay in the range of 3000 to 10000 nM.

With `CCCCCCCCCCCCCCCCC(=O)N[C@H](CN(C)Cc1ccco1)[C@H](O)c1ccc2c(c1)OCCO2` [Compound 683], the IC50 in the data set with GM3 was in the range of 3000 to 10000 nM.

On to `CCCCCCCCCCCCCCCC(=O)N[C@H](CN(C)C(C)C)[C@H](O)c1ccc2c(c1)OCCO2` [Compound 684], for which the IC50 in the data set with GM3 was in the range of 100 to 1000 nM.

Consider `CCCCCCCCCCCCCCCC(=O)N[C@H](CN(C)C1CCCC1)C(O)c1ccc2c(c1)OCCO2` (stereo partly drawn) [Compound 685], for which the IC50 in the data set on GM3 was in the range of 3000 to 10000 nM.

For the molecule `CCCCCCCCC(=O)N[C@H](CN1CCCC1)[C@H](O)c1ccc2c(c1)OCCO2` [Compound A, N-((1R,2R)-1-(2,3-dihydrobenzo[b][1,4]dioxin-6-yl)-1-hydroxy-3-(pyrrolidin-1-yl)propan-2-yl)nonanamide], in the data set on jck mice (setting [1]), the BUN came to 34.67 ± 9.41 mg/dL, the Body weight is 15.93 ± 1.65 g, the Cystic volume was determined as 0.58 ± 0.29 % BW and the K/BW ratio amounted to 3.57 ± 0.58 %. Also, in the data set on jck mice (jck mice, 0.225% in feed, 26-64 days of age, at sacrifice, vs control, p-value<0.05, two-tailed t-test), the total body weight entry is on record as “statistically significant decrease”. In the data set with jck mice (jck mice, 0.225% in feed, 26-64 days of age, percentage cystic area x kidney/body weight ratio, vs control, p-value<0.05), the cyst volume entry is given as “significant decrease”. In addition, the “Blood urea nitrogen (BUN) levels” value in the data set with jck mice (jck mice, 0.225% in feed, 26-64 days of age, serum at sacrifice, vs untreated controls, p-value<0.05) is “significant reduction”. For the same molecule, the cystic disease result in the data set on jck mice (jck mice, 0.225% in feed, as measured by kidney/body weight ratio and cyst volume, males and females) is listed as “statistically significant reduction”. For the same molecule, in the data set on jck mice (jck mice, 0.225% in feed, treated animals relative to controls, males and females), the renal function entry is recorded as “improved renal function”. Further, in the data set with jck mice (setting [2]), the BUN worked out at 39.25 ± 10.70 mg/dL, the Body weight came to 18.43 ± 1.82 g, the Cystic volume was determined as 0.88 ± 0.23 % BW and the K/BW ratio is 4.46 ± 0.46 %.
